Experiments:
Type in all cases: in vivo
[1] = system: locomotion of mice enhanced by administering dizocilpine; experiment: dizocilpine-induced hyperlocomotion in mice; settings: male ddY mice; cilostazol 0.03-3.0 mg/kg orally 30 minutes before dizocilpine 0.1 mg/kg s.c.; locomotion measured for 2 hours
Procedure: In this experiment, cilostazol was studied about the effect affecting the locomotion of mice which was enhanced by administering dizocilpine.
Male ddY mice (7-8 weeks old) were put in a scanning apparatus of spontaneous motor activity (SCANET SV-10, Melquest, Toyama, Japan). After 30 minutes, vehicle (0.3% CMC) or cilostazol (0.03, 0.1, 0.3, 1.0, and 3.0 mg/kg) was orally administered to the mice, and after additional 30 minutes dizocilpine (0.1 mg/kg) was administered subcutaneously. Then, the locomotion of the mice was measured for 2 hours.

[2] = system: dizocilpine-induced PPI deficits in mice; experiment: prepulse inhibition of the acoustic startle reflex, dizocilpine-induced PPI deficits in mice; settings: dizocilpine 0.1 mg/kg, cilostazol administered one hour before testing, dose dependent manner
Procedure: The test animals were prepared by similar means of the above Example 2. Cilostazol was administered one hour before testing. Testing was conducted in eight startle devices each consisting of a Plexiglas cylinder (5 cm in diameter) mounted on a Plexiglas platform in a ventilated sound attenuated cubicle with a high-frequency loudspeaker producing all acoustic stimuli. The background noise of each chamber was 65 dB. Movements within the cylinder were detected and transduced by a piezoelectric accelerometer attached to the Plexiglas base and digitized and stored by a computer. Beginning at the stimulus onset, readings were recorded to obtain the animals' startle amplitude. Each section was initiated with a 10 minutes acclimation period followed by six successive trials, which were not included in the analysis. Startle pulse alone (ST110, 110 dB/40 msec); eight different prepulse trials in which either 20-msec-long 69, 73, 77, and 81 dB stimuli were presented alone (P69, P73, P77, P81) or preceded the 110 dB pulse by 100 msec (PP69, PP73, PP77, PP81); and finally one trial in which only the background noise was presented to measure the baseline movements in the cylinder. All trials were presented in a pseudorandom order, and the average intertrial interval (ITI) was […]. The startle data and percentage prepulse inhibition (PPI) were analyzed by MANOVA (two-ways ANOVA).

[3] = system: model animals prepared with phencyclidine; experiment: re-recognizing test for a new object in model animals prepared with phencyclidine; settings: male ICR mice, phencyclidine 10 mg/kg s.c. 10 days
Procedure: Male ICR mice (6 weeks old, 25-30 g, purchased from Japan SLC, Inc.) were used as experimental animals. The experimental procedure was approved by the laboratory animal ethics committee in the Graduate School of Medicine and School of Medicine, Chiba University. Phencyclidine was subcutaneously administered to the mice in 10 mg/kg once a day for 10 days. […] Twenty four hours after the final administration, re-recognizing test for a new object was carried out. The re-recognizing test for a new object was carried out using a black open-field (50.8×50.8×25.4 cm). The mice were made to be trained in the open-field for three days before starting the re-recognizing test for a new object. Two objects which have almost the same size but different shapes and colors were set separating off in a distance of 35.5 cm, and then the mice were made to seek for 10 minutes. After the seeking, the mice were put back to the gauge. Twenty four hours after the first seeking, a memory retention test was carried out. On this memory retention test, one of the objects was replaced by a new one. The mice were made to seek for 5 minutes, and the time which was taken to seek each object was recorded. The results were shown as a ratio of the seeking time of the new object against that of the two objects. The data were shown as mean±standard deviation. The statistical analyses thereof were carried out using one-way ANOVA and post-hoc Bonferroni test. A p-value of 0.05 or less was considered as a statistical significance.

SMILES: O=C1CCc2cc(OCCCCc3nnnn3C3CCCCC3)ccc2N1 [cilostazol, 6-[4-(1-cyclohexyl-1H-tetrazol-5-yl)butoxy]-3,4-dihydrocarbostyril]
- locomotion enhanced by administering dizocilpine [1]: significantly inhibited
- PPI deficits caused by administration of dizocilpine [2]: significantly inhibited
- condition of schizophrenia caused by phencyclidine (ratio of the seeking time of the new object) ([3]; cilostazol 3 mg/kg orally once a day for two weeks): improved significantly
- condition of schizophrenia caused by phencyclidine (ratio of the seeking time of the new object) ([3]; cilostazol 10 mg/kg orally once a day for two weeks): improved significantly
- condition of schizophrenia caused by phencyclidine (ratio of the seeking time of the new object) ([3]; cilostazol 30 mg/kg orally once a day for two weeks): improved significantly
- condition of schizophrenia caused by phencyclidine (ratio of the seeking time of the new object) ([3]; cilostazol orally once a day for two weeks, dose-dependently): improved
